pIC50: −log10 of the molar value. Strand notation (5' to 3'): a small letter for the sugar, then the base; units joined by * are phosphorothioate-linked, units joined directly phosphodiester-linked; [ ] holds rarer units or linkages, { } end groups; capitals alone tell only the bases. [ms] = mesyl phosphoramidate linkage; e = 2'-O-(2-methoxyethyl) (MOE); k = constrained ethyl (cEt); [5mC] = 5-methylcytosine; d = 2'-deoxy (DNA)
Experiments:
[1] = test system: human APOE RNA; experiment: Activity in APOE C57BL/6NTac-Apoeem7250 knock-in mice, single ICV bolus, 16 weeks (Example 12); type: in vivo; conditions: single ICV bolus 300 μg, 16 weeks post treatment, normalized to mouse Ppia
Experimental: Modified oligonucleotides described above were tested in the APOE C57BL/6NTac-Apoeem7250 knock-in mouse model described above.
APOE C57BL/6NTac-Apoeem7250 knock-in mice were divided into groups of 3-4 mice each. Each mouse received a single intracerebroventricular (ICV) bolus of 300 μg of modified oligonucleotide. A group of 4 mice received a single ICV bolus with PBS as a negative control.
Sixteen weeks post treatment, mice were sacrificed and RNA was extracted from cortical brain tissue and spinal cord for quantitative real-time RT-PCR analysis of RNA expression of APOE using primer probe set RTS3073 (described herein above). APOE RNA levels were normalized to mouse Ppia. Mouse Ppia was amplified using primer probe set m_cyclo24 (described herein above). Results are presented as percent human APOE RNA relative to the amount of human APOE RNA in PBS treated animals, (% control). Each experiment is identified in separate tables below.

[2] = test system: human APOE RNA; experiment: Dose-dependent inhibition of human APOE RNA in HepG2 cells, electroporation, 24 hours (Example 6); type: cell-based
Experimental: Modified oligonucleotides selected from the examples above were tested at various doses in HepG2.
HepG2 cells plated at a density of 50,000 cells per well were treated by electroporation with various concentrations of modified oligonucleotide as specified in the tables below. […] APOE RNA levels were measured using the human primer probe set RTS3073 (described herein above). APOE RNA levels were normalized to human GAPDH. Human GAPDH was amplified using human primer probe set RTS 104 (described herein above). Results are presented as percent APOE RNA, relative to the amount of APOE RNA in untreated control cells (% UTC). The half maximal inhibitory concentration (IC50) of each modified oligonucleotide was calculated in GraphPad Prism 10 (GraphPad Software, San Diego, CA) and is also presented in the tables below.

Substance: 1693081: 6-10-4 MOE gapmer TTGGTGAATCTTTATTAAAC, linkages sssssozzszssszssoss (eT*eT*eG*eG*eT*eGdA[ms]dA[ms]dT*d[5mC][ms]dT*dT*dT*dA[ms]dT*dT*eAeA*eA*e[5mC]) [compound 1693081]
- APOE RNA (% control) Cortex [1]: 91 % control
- APOE RNA (% control) Spinal Cord [1]: 100 % control

Substance: 1693053: 5-10-5 MOE gapmer TTGGTGAATCTTTATTAAAC, linkages ssssszzzsssssssosss (antisense eT*eT*eG*eG*eT*dG[ms]dA[ms]dA[ms]dT*d[5mC]*dT*dT*dT*dA*dT*eTeA*eA*eA*e[5mC]) [compound 1693053]
- APOE RNA (% control) Cortex [1]: 99 % control
- APOE RNA (% control) Spinal Cord [1]: 99 % control

Substance: 1693071: 5-10-5 MOE gapmer ACTTGGTGAATCTTTATTAA, linkages ssssssszzzzzsssosss (antisense eA*e[5mC]*eT*eT*eG*dG*dT*dG[ms]dA[ms]dA[ms]dT[ms]d[5mC][ms]dT*dT*dT*eAeT*eT*eA*eA) [compound 1693071]
- APOE RNA (% control) Cortex [1]: 68 % control
- APOE RNA (% control) Spinal Cord [1]: 66 % control

Substance: 1693046: 5-10-5 MOE gapmer CTTGGTGAATCTTTATTAAA, linkages ssssszzzzzsssssssss (antisense e[5mC]*eT*eT*eG*eG*dT[ms]dG[ms]dA[ms]dA[ms]dT[ms]d[5mC]*dT*dT*dT*dA*eT*eT*eA*eA*eA) [compound 1693046]
- APOE RNA (% control) Cortex [1]: 106 % control
- APOE RNA (% control) Spinal Cord [1]: 80 % control

Substance: 1693079: 6-10-4 MOE gapmer TTGGTGAATCTTTATTAAAC, linkages sssosszzszssszssoss (eT*eT*eG*eGeT*eG*dA[ms]dA[ms]dT*d[5mC][ms]dT*dT*dT*dA[ms]dT*dT*eAeA*eA*e[5mC]) [compound 1693079]
- APOE RNA (% control) Cortex [1]: 93 % control
- APOE RNA (% control) Spinal Cord [1]: 106 % control

Substance: 1693058: 5-10-5 MOE gapmer TTGGTGAATCTTTATTAAAC, linkages sssoszzzssssszsosss (antisense eT*eT*eG*eGeT*dG[ms]dA[ms]dA[ms]dT*d[5mC]*dT*dT*dT*dA[ms]dT*eTeA*eA*eA*e[5mC]) [compound 1693058]
- APOE RNA (% control) Cortex [1]: 113 % control
- APOE RNA (% control) Spinal Cord [1]: 80 % control

Substance: 1693080: 6-10-4 MOE gapmer TTGGTGAATCTTTATTAAAC, linkages ssssoszzszssszssoss (eT*eT*eG*eG*eTeG*dA[ms]dA[ms]dT*d[5mC][ms]dT*dT*dT*dA[ms]dT*dT*eAeA*eA*e[5mC]) [compound 1693080]
- APOE RNA (% control) Cortex [1]: 99 % control
- APOE RNA (% control) Spinal Cord [1]: 88 % control

Substance: 1693066: 5-10-5 MOE gapmer ACTTGGTGAATCTTTATTAA, linkages sssssssszzsssssooss (antisense eA*e[5mC]*eT*eT*eG*dG*dT*dG*dA[ms]dA[ms]dT*d[5mC]*dT*dT*dT*eAeTeT*eA*eA) [compound 1693066]
- APOE RNA (% control) Cortex [1]: 88 % control
- APOE RNA (% control) Spinal Cord [1]: 73 % control

Substance: 1736518: 6-10-4 MOE gapmer CTTGGTGAATCTTTATTAAA, linkages soossszzzssssssssss (e[5mC]*eTeTeG*eG*eT*dG[ms]dA[ms]dA[ms]dT*d[5mC]*dT*dT*dT*dA*dT*eT*eA*eA*eA) [compound 1736518]
- pIC50 [2]: 6.14
- APOE RNA (% UTC) ([2]; 5 nM): 93 % UTC
- APOE RNA (% UTC) ([2]; 13 nM): 97 % UTC
- APOE RNA (% UTC) ([2]; 33 nM): 99 % UTC
- APOE RNA (% UTC) ([2]; 82 nM): 83 % UTC
- APOE RNA (% UTC) ([2]; 205 nM): 64 % UTC
- APOE RNA (% UTC) ([2]; 512 nM): 44 % UTC
- APOE RNA (% UTC) ([2]; 1,280 nM): 37 % UTC
- APOE RNA (% UTC) ([2]; 3,200 nM): 31 % UTC
- APOE RNA (% UTC) ([2]; 8,000 nM): 30 % UTC
- APOE RNA (% UTC) ([2]; 20,000 nM): 13 % UTC

Substance: 1693057: 5-10-5 MOE gapmer TTGGTGAATCTTTATTAAAC, linkages ssssszzzssssszsosss (antisense eT*eT*eG*eG*eT*dG[ms]dA[ms]dA[ms]dT*d[5mC]*dT*dT*dT*dA[ms]dT*eTeA*eA*eA*e[5mC]) [compound 1693057]
- APOE RNA (% control) Cortex [1]: 125 % control
- APOE RNA (% control) Spinal Cord [1]: 101 % control

Substance: 1693059: 5-10-5 MOE gapmer TTGGTGAATCTTTATTAAAC, linkages ssssszzzssssszsssss (antisense eT*eT*eG*eG*eT*dG[ms]dA[ms]dA[ms]dT*d[5mC]*dT*dT*dT*dA[ms]dT*eT*eA*eA*eA*e[5mC]) [compound 1693059]
- APOE RNA (% control) Cortex [1]: 89 % control
- APOE RNA (% control) Spinal Cord [1]: 98 % control

Substance: 1736516 (e[5mC]*eTeTeG*eG*kT*dG[ms]dA[ms]dA[ms]dT*d[5mC]*dT*dT*dT*dA[ms]dT*eT*eA*eA*eA; antisense) [Compound 1736516]
- pIC50 [2]: 5.94
- APOE RNA (% UTC) ([2]; 5 nM): 106 % UTC
- APOE RNA (% UTC) ([2]; 13 nM): 110 % UTC
- APOE RNA (% UTC) ([2]; 33 nM): 121 % UTC
- APOE RNA (% UTC) ([2]; 82 nM): 117 % UTC
- APOE RNA (% UTC) ([2]; 205 nM): 58 % UTC
- APOE RNA (% UTC) ([2]; 512 nM): 59 % UTC
- APOE RNA (% UTC) ([2]; 1,280 nM): 39 % UTC
- APOE RNA (% UTC) ([2]; 3,200 nM): 29 % UTC
- APOE RNA (% UTC) ([2]; 8,000 nM): 32 % UTC
- APOE RNA (% UTC) ([2]; 20,000 nM): 22 % UTC

Substance: 1693055: 5-10-5 MOE gapmer TTGGTGAATCTTTATTAAAC, linkages sososzzzsssssssosss (antisense eT*eTeG*eGeT*dG[ms]dA[ms]dA[ms]dT*d[5mC]*dT*dT*dT*dA*dT*eTeA*eA*eA*e[5mC]) [compound 1693055]
- APOE RNA (% control) Cortex [1]: 95 % control
- APOE RNA (% control) Spinal Cord [1]: 67 % control

Substance: 1693070: 5-10-5 MOE gapmer ACTTGGTGAATCTTTATTAA, linkages ssssssszzzszsssosss (antisense eA*e[5mC]*eT*eT*eG*dG*dT*dG[ms]dA[ms]dA[ms]dT*d[5mC][ms]dT*dT*dT*eAeT*eT*eA*eA) [compound 1693070]
- APOE RNA (% control) Cortex [1]: 86 % control
- APOE RNA (% control) Spinal Cord [1]: 76 % control

Substance: 1693062: 5-10-5 MOE gapmer TTGGTGAATCTTTATTAAAC, linkages ssssozzzsssszzsssss (antisense eT*eT*eG*eG*eTdG[ms]dA[ms]dA[ms]dT*d[5mC]*dT*dT*dT[ms]dA[ms]dT*eT*eA*eA*eA*e[5mC]) [compound 1693062]
- APOE RNA (% control) Cortex [1]: 98 % control
- APOE RNA (% control) Spinal Cord [1]: 110 % control

Substance: 1693138: 6-10-4 MOE gapmer CTTGGTGAATCTTTATTAAA, linkages sssssozzzsssszzsoss (e[5mC]*eT*eT*eG*eG*eTdG[ms]dA[ms]dA[ms]dT*d[5mC]*dT*dT*dT[ms]dA[ms]dT*eTeA*eA*eA) [compound 1693138]
- APOE RNA (% control) Cortex [1]: 90 % control
- APOE RNA (% control) Spinal Cord [1]: 85 % control

Substance: 1693077: 6-10-4 MOE gapmer TTGGTGAATCTTTATTAAAC, linkages sosssszzszssszssoss (eT*eTeG*eG*eT*eG*dA[ms]dA[ms]dT*d[5mC][ms]dT*dT*dT*dA[ms]dT*dT*eAeA*eA*e[5mC]) [compound 1693077]
- APOE RNA (% control) Cortex [1]: 98 % control
- APOE RNA (% control) Spinal Cord [1]: 76 % control

Substance: 1736517 (e[5mC]*eTeTeG*kG*kT*dG[ms]dA[ms]dA[ms]dT*d[5mC]*dT*dT*dT*dA[ms]dT*eT*eA*eA*eA; antisense) [Compound 1736517]
- pIC50 [2]: 6.33
- APOE RNA (% UTC) ([2]; 5 nM): 106 % UTC
- APOE RNA (% UTC) ([2]; 13 nM): 92 % UTC
- APOE RNA (% UTC) ([2]; 33 nM): 94 % UTC
- APOE RNA (% UTC) ([2]; 82 nM): 84 % UTC
- APOE RNA (% UTC) ([2]; 205 nM): 57 % UTC
- APOE RNA (% UTC) ([2]; 512 nM): 42 % UTC
- APOE RNA (% UTC) ([2]; 1,280 nM): 35 % UTC
- APOE RNA (% UTC) ([2]; 3,200 nM): 22 % UTC
- APOE RNA (% UTC) ([2]; 8,000 nM): 13 % UTC
- APOE RNA (% UTC) ([2]; 20,000 nM): 10 % UTC

Substance: 1736519: 6-10-4 MOE gapmer CTTGGTGAATCTTTATTAAA, linkages sososszzzssssssssss (e[5mC]*eTeT*eGeG*eT*dG[ms]dA[ms]dA[ms]dT*d[5mC]*dT*dT*dT*dA*dT*eT*eA*eA*eA) [compound 1736519]
- pIC50 [2]: 6.47
- APOE RNA (% UTC) ([2]; 5 nM): 107 % UTC
- APOE RNA (% UTC) ([2]; 13 nM): 104 % UTC
- APOE RNA (% UTC) ([2]; 33 nM): 91 % UTC
- APOE RNA (% UTC) ([2]; 82 nM): 75 % UTC
- APOE RNA (% UTC) ([2]; 205 nM): 53 % UTC
- APOE RNA (% UTC) ([2]; 512 nM): 42 % UTC
- APOE RNA (% UTC) ([2]; 1,280 nM): 25 % UTC
- APOE RNA (% UTC) ([2]; 3,200 nM): 15 % UTC
- APOE RNA (% UTC) ([2]; 8,000 nM): 16 % UTC
- APOE RNA (% UTC) ([2]; 20,000 nM): 5 % UTC
